# From US20250319105A1, “NEUROACTIVE STEROID FOR THE TREATMENT OF ALZHEIMER'S DISEASE” (SAGE THERAPEUTICS, INC., priority 2021, published 2025)
# Entries after “also recorded” stand apart in the source; their conditions may differ.
# Key:
# [1] = test system: participants with MCI or mild dementia due to AD; experiment: Open-label study: tests of learning and memory (PAL, PRM, VRM, Spatial Span); type: in vivo, human
# Text: (§1) Additional objectives of the study were to assess the following: • PK profile of Compound 1 following administration of multiple doses as assessed by periodic PK sampling • Change from baseline on tests of executive function. • Change from baseline on tests of learning and memory. • Verbal Recognition Memory • Paired Associates Learning • Pattern Recognition Memory • Spatial Span • Change from baseline on tests of social cognition. • Emotion Recognition Task • Emotion Bias Task • Change from baseline on tests of psychomotor function. • Change from baseline on assessments of neuropsychiatric symptoms: • Change from baseline in performance on the Montreal Cognitive Assessment • Change from baseline in Clinical Global Impressions-Severity scores • Overall scores on Clinical Global Impressions-Improvement scales • Change from baseline in Amsterdam Instrumental Activities of Daily Living • Change from baseline in exploratory peripheral biomarkers • Amyloid PET Scan
# The tests of Learning and Memory included Paired Associates Learning (PAL), which assesses how well the subject remembers the location of hidden objects; Pattern Recognition Memory (PRM), which assesses how well the subject remembers a pattern; and Verbal Recognition Memory […], which assesses how well the subject stores and retrieves verbal information.
# [2] = test system: participants with MCI or mild dementia due to AD; experiment: Open-label study: tests of executive functioning (MTT, OTS, SWM, DSST, 2-Back); type: in vivo, human
# Text: as §1
# The tests of Executive Functioning included (1) Multitasking Test (MTT), which assesses how well the subject manages conflicting information; (2) One Touch Stockings of Cambridge (OTS), which assesses how well the subject plans, holds onto, and manipulates information to solve a puzzle; (3) Spatial Working Memory (SWM), which assesses how well the subject develops and uses a strategy to find hidden information; (4) Digit Symbol Substitution Task (DSST), which assesses how efficiently can the subject complete a demanding task (daily measure); and (5) Two-Back Test (NBX), which asks is the symbol the same as that shown two symbols ago.
# [3] = test system: participants with MCI or mild dementia due to AD; experiment: Open-label study: safety and tolerability (TEAEs, laboratory, vital signs, ECG); conditions: 3 mg once daily oral for 14 days
# Text: The Study comprised a 2-week screening period, a 1-week baseline period, a 2-week open-label treatment period, and a 2-week follow-up period. […] During the 1-week pre-treatment baseline period, patients underwent repeated cognitive testing using a comprehensive battery of tests to establish a robust cognitive baseline across multiple domains of cognitive function.
# The key inclusion criteria for the subjects were as follows: • Be between the ages of 50 and 80 years, inclusive, at Screening • Meet the following criteria for MCI or mild dementia due to AD at Screening: • A memory complaint reported by the participant or his/her study partner • A CDR score of 0.5 to 1.0 (inclusive) with a memory box score ≥0.5 • Essentially preserved activities of daily living, in the opinion of the investigator. • Brain MRI report, obtained within the 2 years preceding the Baseline Period, that is consistent with the diagnosis of AD-MCI with no clinically significant findings of non-AD pathology that could account for the observed cognitive impairment • Have a score of 15 to 24 (inclusive) on the MoCA at Screening • Have an estimated premorbid IQ≥85 (as assessed by the Test of Premorbid Functioning, performed at Screening
# The Primary objective of the study was to assess (1) the incidence of Treatment-Emergent Adverse Event (TEAE).
# The secondary objectives of the study were to assess: • the percentage of Participants With Clinically Significant Changes in Vital Sign Measurements, clinical laboratory analytes, electrocardiograms (ECGs), and responses on the Columbia-Suicide Severity Rating Scale (C-SSRS).
# [4] = Open-label study: PK sampling, plasma concentrations; type: in vivo, human; conditions: Day 7 and Day 14; 3 mg once daily oral with a meal
# Text: as §1
# [5] = test system: participants with MCI or mild dementia due to AD; experiment: Open-label study: global cognition, Montreal Cognitive Assessment (MoCA); type: in vivo, human; conditions: 3 mg once daily oral for 14 days
# Text: as §1
# [6] = test system: participants with MCI or mild dementia due to AD; experiment: Open-label study: tests of attention and psychomotor performance (RTI, PVT); type: in vivo, human; conditions: 3 mg once daily oral for 14 days
# Text: as §1
# The tests of Attention and Psychomotor Performance included Reaction Time (RTI), which assesses how fast the subject can respond to a stimulus (weekly measure); Psychomotor Vigilance Task (PVT), which assesses how fast can the subject respond to a stimulus (daily measure).
# [7] = 3 mg once daily oral for 14 days, change from baseline, Clinic/Weekly
smiles,measurement,setting,value
C[C@H](CC[C@](C)(O)C(F)(F)F)[C@H]1CC[C@H]2[C@@H]3CC=C4C[C@@](C)(O)CC[C@]4(C)[C@H]3CC[C@]12C [Compound 1],"Paired Associates Learning, Directional Trend",[1]; [7],no change (or slight worsening); also recorded: Mixed
same,"Pattern Recognition Memory, Directional Trend",[1]; [7],numerical improvement
same,"Spatial Span, Directional Trend",[1]; [7],no change (or slight worsening); also recorded: Mixed
same,"Verbal Recognition Memory, Directional Trend",[1]; [7],Improvement
same,Performance on tests of learning and memory,"[1]; Day 14 vs baseline, 3 mg once daily oral",additional signals suggesting improved performance
same,"2-Back Test, Directional Trend",[2]; [7],numerical improvement
same,"Multitasking, Directional Trend",[2]; [7],numerical improvement
same,"One Touch Stockings, Directional Trend",[2]; [7],numerical improvement
same,"Spatial working Memory, Directional Trend",[2]; [7],numerical improvement
same,"Digit Symbol Substitution, Directional Trend","[2]; 3 mg once daily oral for 14 days, change from baseline, Mobile/Daily",numerical improvement
same,Performance from baseline on all tests of executive functioning,"[2]; Day 14, 3 mg once daily oral",improved performance
same,Clinically significant laboratory abnormalities,[3]; 26 enrolled subjects,No clinically significant laboratory abnormalities
same,Clinically significant vital sign or ECG abnormalities,[3]; 26 enrolled subjects,No clinically significant vital sign or ECG abnormalities
same,Number of TEAEs,[3]; 26 enrolled subjects,8
same,"Severe TEAEs, SAEs, or deaths",[3]; 26 enrolled subjects,"No severe TEAEs, SAEs, or deaths"
same,TEAEs resulting in study drug discontinuation or withdrawal from the study,[3]; 26 enrolled subjects,No TEAEs resulted in study drug discontinuation or withdrawal from the study
same,"Mild TEAEs, n (%)",[3]; of 8 TEAEs,4 (50%)
same,"Moderate TEAEs, n (%)",[3]; of 8 TEAEs,4 (50%)
same,Number of TEAEs considered related to study treatment,[3]; of 8 TEAEs,6
same,Number of subjects who experienced TEAEs,[3]; of the 26 enrolled subjects,7
same,Plasma concentrations versus predicted range,[4],consistent with the predicted range
same,"MoCA (Global), Directional Trend","[5]; change from baseline, Monthly",Improvement
same,"MoCA score, mean CFB (change from baseline)","[5]; CFB at Day 28, n = 20",2.3
same,"MoCA score, mean","[5]; Day 28, n = 20, baseline mean 20.5",(22.8
same,"Improvement in global cognition, assessed via MoCA",[5]; statistically significant,+2.3 pts
same,Changes in attention or psychomotor processing,[6],No changes
same,"Reaction Time, Directional Trend","[6]; change from baseline, Clinic/Weekly",No Change
same,"Psychomotor Vigilance Task, Directional Trend","[6]; change from baseline, Mobile/Daily",No Change
